What was measured:
[1] = tested on: Hepatotoxicity;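 for HepSE Combined Scores: combined hepatic side effect score as listed in the training data of the Drug Induced Liver Injury Prediction System (DILIps)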;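 for HepSE elevated liver function tests: hepatic side effect score for raised liver function tests, as recorded in the DILIps training set used for predicting drug-induced liver injury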;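 for HepSE hepatitis: Hepatitis-related hepatic side effect score taken from the training data of DILIps, a prediction system for drug-induced liver injury; call rule not given here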;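 for HepSE hepatomegaly: hepatic side effect score for hepatomegaly, taken from the training set of the DILIps drug-induced liver injury prediction system; call rule not given here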;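 for HepSE jaundice: Jaundice-related hepatic side-effect score drawn from the training data of the DILIps (drug-induced liver injury prediction system); call rule not given here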;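 for HepSE liver fatty: hepatic side effect score for fatty liver, taken from the DILIps training set for predicting drug-induced liver injury; call rule not given here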
[2] = tested on: Hepatotoxicity; remark: listed apart in the source;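 for HepSE Combined Scores: combined hepatic side effect score as listed in the training data of the Drug Induced Liver Injury Prediction System (DILIps)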;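 for HepSE elevated liver function tests: hepatic side effect score for raised liver function tests, as recorded in the DILIps training set used for predicting drug-induced liver injury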;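 for HepSE hepatitis: Hepatitis-related hepatic side effect score taken from the training data of DILIps, a prediction system for drug-induced liver injury; call rule not given here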;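 for HepSE hepatomegaly: hepatic side effect score for hepatomegaly, taken from the training set of the DILIps drug-induced liver injury prediction system; call rule not given here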;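 for HepSE jaundice: Jaundice-related hepatic side-effect score drawn from the training data of the DILIps (drug-induced liver injury prediction system); call rule not given here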;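 for HepSE liver fatty: hepatic side effect score for fatty liver, taken from the DILIps training set for predicting drug-induced liver injury; call rule not given here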
[3] = tested on: Hepatotoxicity; remark: listed apart in the source;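 for HepSE Combined Scores: combined hepatic side effect score as listed in the training data of the Drug Induced Liver Injury Prediction System (DILIps)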;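 for HepSE elevated liver function tests: hepatic side effect score for raised liver function tests, as recorded in the DILIps training set used for predicting drug-induced liver injury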;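 for HepSE hepatitis: Hepatitis-related hepatic side effect score taken from the training data of DILIps, a prediction system for drug-induced liver injury; call rule not given here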;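 for HepSE hepatomegaly: hepatic side effect score for hepatomegaly, taken from the training set of the DILIps drug-induced liver injury prediction system; call rule not given here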;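 for HepSE jaundice: Jaundice-related hepatic side-effect score drawn from the training data of the DILIps (drug-induced liver injury prediction system); call rule not given here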;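 for HepSE liver fatty: hepatic side effect score for fatty liver, taken from the DILIps training set for predicting drug-induced liver injury; call rule not given here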
[4] = tested on: Hepatotoxicity; remark: listed apart in the source;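 for HepSE elevated liver function tests: hepatic side effect score for raised liver function tests, as recorded in the DILIps training set used for predicting drug-induced liver injury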;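 for HepSE hepatitis: Hepatitis-related hepatic side effect score taken from the training data of DILIps, a prediction system for drug-induced liver injury; call rule not given here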;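 for HepSE hepatomegaly: hepatic side effect score for hepatomegaly, taken from the training set of the DILIps drug-induced liver injury prediction system; call rule not given here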;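 for HepSE jaundice: Jaundice-related hepatic side-effect score drawn from the training data of the DILIps (drug-induced liver injury prediction system); call rule not given here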;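 for HepSE liver fatty: hepatic side effect score for fatty liver, taken from the DILIps training set for predicting drug-induced liver injury; call rule not given here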
[5] = tested on: Hepatotoxicity; remark: listed apart in the source
[6] = tested on: Hepatotoxicity; remark: listed apart in the source
[7] = tested on: Hepatotoxicity; remark: listed apart in the source
[8] = tested on: Hepatotoxicity; remark: listed apart in the source
[9] = tested on: Hepatotoxicity; remark: listed apart in the source
[10] = tested on: Hepatotoxicity; remark: listed apart in the source
[11] = tested on: Hepatotoxicity; remark: listed apart in the source
[12] = tested on: Hepatotoxicity; remark: listed apart in the source
[13] = tested on: Hepatotoxicity; remark: listed apart in the source
[14] = tested on: Hepatotoxicity; remark: listed apart in the source

Compound | HepSE_jaundice [1] | HepSE_hepatomegaly [2] | HepSE_liver fatty [3] | HepSE_elevated liver function tests [4] | HepSE_hepatitis [5] | HepSE_Combined Scores [6] | HepSE_liver function tests abnormal [7] | HepSE_bilirubinemia [8] | HepSE_hepatic failure [9] | HepSE_cholecystitis [10] | HepSE_cholelithiasis [11] | HepSE_liver disease [12] | HepSE_hepatic necrosis [13] | HepSE_cirrhosis [14] | also measured
C=CCC1(C(C)CCC)C(=O)NC(=O)NC1=O (stereo not drawn) [SECOBARBITAL] | 0 | 0 | 0 | 0 | 0 | 0 | 0 | 0 | 0 | 0 | 0 | 0 | 0 | 0 | 
C#CCN(C)[C@H](C)Cc1ccccc1 [SELEGILINE] | 0 | 0 | 0 | 0 | 1 | 5 | 1 | 1 | 0 | 1 | 1 | 0 | 0 | 0 | 
Clc1ccc(C(Cn2ccnc2)OCc2csc3c(Cl)cccc23)c(Cl)c1 (stereo not drawn) [SERTACONAZOLE] | 0 | 0 | 0 | 0 | 0 | 0 | 0 | 0 | 0 | 0 | 0 | 0 | 0 | 0 | 
CN[C@H]1CC[C@@H](c2ccc(Cl)c(Cl)c2)c2ccccc21 [SERTRALINE] |  |  |  |  |  |  |  |  |  |  |  |  |  |  | HepSE_jaundice ([1]; Liver): 1; HepSE_hepatomegaly ([2]; Liver): 1; HepSE_liver fatty ([3]; Liver): 0; HepSE_elevated liver function tests ([4]; Liver): 0; HepSE_hepatitis ([5]; Liver): 1; HepSE_Combined Scores ([6]; Liver): 4; HepSE_liver function tests abnormal ([7]; Liver): 0; HepSE_bilirubinemia ([8]; Liver): 0; HepSE_hepatic failure ([9]; Liver): 1; HepSE_cholecystitis ([10]; Liver): 0; HepSE_cholelithiasis ([11]; Liver): 0; HepSE_liver disease ([12]; Liver): 0; HepSE_hepatic necrosis ([13]; Liver): 0; HepSE_cirrhosis ([14]; Liver): 0
FCOC(C(F)(F)F)C(F)(F)F [SEVOFLURANE] | 1 | 0 | 0 | 0 | 1 | 5 | 0 | 1 | 1 | 0 | 0 | 0 | 1 | 0 | 
CC(C)CC(N(C)C)C1(c2ccc(Cl)cc2)CCC1 (stereo not drawn) [SIBUTRAMINE] | 0 | 0 | 0 | 0 | 0 | 3 | 1 | 0 | 0 | 1 | 1 | 0 | 0 | 0 | 
CSCC[C@H](NC(=O)[C@H](Cc1ccc(OS(=O)(=O)O)cc1)NC(=O)[C@@H](N)CC(=O)O)C(=O)NCC(=O)N[C@@H](Cc1c[nH]c2ccccc12)C(=O)N[C@@H](CCSC)C(=O)N[C@@H](CC(=O)O)C(=O)N[C@@H](Cc1ccccc1)C(N)=O [SINCALIDE] | 0 | 0 | 0 | 0 | 0 | 0 | 0 | 0 | 0 | 0 | 0 | 0 | 0 | 0 | 
